Test results: the NIST ThermoML archive (doi:10.1021/je100083w)

Conditions: Liquid, Bellows volumetry

O [water]
Conditions	specific volume [m3/kg]
253.56 K, 298200 kPa	0.0008917
253.56 K, 325300 kPa	0.0008857
253.56 K, 349800 kPa	0.0008804
253.58 K, 223600 kPa	0.0009109
253.58 K, 223700 kPa	0.000911
253.58 K, 273300 kPa	0.0008978
253.58 K, 273600 kPa	0.0008977
253.58 K, 323500 kPa	0.000886
253.6 K, 249400 kPa	0.0009039
253.6 K, 298400 kPa	0.0008918
253.61 K, 248900 kPa	0.0009041
253.63 K, 349100 kPa	0.0008803
253.64 K, 223700 kPa	0.000911
253.64 K, 248300 kPa	0.0009041
253.65 K, 299600 kPa	0.000891
253.67 K, 349800 kPa	0.00088
253.68 K, 273300 kPa	0.0008975
253.69 K, 325300 kPa	0.0008852
253.83 K, 323300 kPa	0.0008861
253.83 K, 349500 kPa	0.0008803
253.86 K, 273400 kPa	0.0008977
253.86 K, 298200 kPa	0.0008918
253.87 K, 248600 kPa	0.0009042
253.9 K, 223600 kPa	0.000911
258.37 K, 198400 kPa	0.00092
258.37 K, 248400 kPa	0.0009059
258.38 K, 274900 kPa	0.0008992
258.4 K, 174000 kPa	0.0009274
258.41 K, 223300 kPa	0.0009127
258.45 K, 299600 kPa	0.0008933
258.46 K, 348900 kPa	0.0008821
258.52 K, 323300 kPa	0.0008877
258.52 K, 324100 kPa	0.0008879
258.53 K, 275300 kPa	0.0008991
258.54 K, 249300 kPa	0.0009057
258.54 K, 298500 kPa	0.0008935
258.55 K, 225000 kPa	0.0009123
258.58 K, 174100 kPa	0.0009275
258.58 K, 349500 kPa	0.0008815
258.59 K, 199300 kPa	0.0009197
258.59 K, 223500 kPa	0.0009124
258.6 K, 198200 kPa	0.0009199
258.6 K, 248400 kPa	0.0009053
258.6 K, 273300 kPa	0.0008992
258.6 K, 323400 kPa	0.0008873
258.6 K, 348800 kPa	0.0008828
258.61 K, 198500 kPa	0.0009196
258.61 K, 223400 kPa	0.0009121
258.61 K, 299200 kPa	0.0008928
258.64 K, 223300 kPa	0.0009126
258.64 K, 248500 kPa	0.0009056
258.65 K, 248300 kPa	0.0009047
258.65 K, 274500 kPa	0.0008977
258.65 K, 299500 kPa	0.0008914
258.66 K, 198400 kPa	0.0009199
258.67 K, 174000 kPa	0.0009274
258.68 K, 173500 kPa	0.0009277
258.68 K, 223300 kPa	0.0009118
258.7 K, 174400 kPa	0.0009274
258.75 K, 199500 kPa	0.000919
258.76 K, 173800 kPa	0.0009274
263.51 K, 299100 kPa	0.0008953
263.52 K, 350000 kPa	0.0008839
263.58 K, 298900 kPa	0.0008957
263.6 K, 249800 kPa	0.0009078
263.61 K, 248800 kPa	0.0009077
263.62 K, 149500 kPa	0.0009371
263.64 K, 198700 kPa	0.0009216
263.64 K, 248800 kPa	0.0009078
263.64 K, 298000 kPa	0.0008957
263.64 K, 349900 kPa	0.0008842
263.65 K, 198400 kPa	0.0009219
263.69 K, 149400 kPa	0.0009369
263.69 K, 198600 kPa	0.0009216
263.69 K, 349100 kPa	0.0008847
263.75 K, 149200 kPa	0.000937
268.42 K, 99500 kPa	0.0009558
268.47 K, 149200 kPa	0.0009384
268.47 K, 248700 kPa	0.0009095
268.47 K, 300200 kPa	0.000897
268.47 K, 348900 kPa	0.0008867
268.48 K, 199300 kPa	0.0009231
268.48 K, 298400 kPa	0.0008977
268.48 K, 349100 kPa	0.0008861
268.51 K, 149700 kPa	0.0009382
268.51 K, 249100 kPa	0.0009096
268.52 K, 149700 kPa	0.0009382
268.52 K, 198400 kPa	0.0009234
268.52 K, 249000 kPa	0.0009097
268.53 K, 198800 kPa	0.0009234
268.55 K, 99400 kPa	0.0009559
268.55 K, 298900 kPa	0.0008975
268.58 K, 99800 kPa	0.0009557
268.6 K, 348900 kPa	0.0008866
273.32 K, 69100 kPa	0.0009686
273.38 K, 298800 kPa	0.0008991
273.4 K, 349400 kPa	0.0008876
273.44 K, 149100 kPa	0.0009398
273.46 K, 99300 kPa	0.0009569
273.48 K, 69100 kPa	0.0009688
273.51 K, 199000 kPa	0.0009249
273.52 K, 69100 kPa	0.0009682
273.52 K, 149000 kPa	0.0009392
273.52 K, 249000 kPa	0.0009109
273.53 K, 99100 kPa	0.0009564
273.55 K, 198900 kPa	0.0009242
273.56 K, 98600 kPa	0.0009574
273.57 K, 149100 kPa	0.00094
273.57 K, 249100 kPa	0.0009117
273.63 K, 249300 kPa	0.000912
273.65 K, 298900 kPa	0.0008999
